Consider five molecules from publication PMC13334477 (RSC Medicinal Chemistry, 2026).

pKd: −log10 of the molar value. Several values for one entry are separate records, joined by “and”; a condition that tells them apart may be missing. Identical values can stand only once. Like-named read-outs stand apart in the source and are kept apart here.

Series [1] addresses G4T4G4 DNA G4 (antiparallel). Description: Native ESI-MS, G4T4G4. The settings on record: 10 μM DNA, 20 μM ligand, 100 mM ammonium acetate. It counts as binding. The method, then:
(§1) Oligonucleotides were purchased lyophilized and RP-cartridge purified from Eurogentec (Kanaka Eurogentec, Seraing, Belgium), then buffer exchanged with ammonium acetate (5 M; Sigma-Aldrich, Saint-Quentin-Fallavier, France) using Amicon Ultra (3 K cut-off; Merck Millipore, Cork, Ireland). The concentrations of the initial stock solutions of DNA/RNA (∼1 mM) were measured by UV absorbance at 260 nm. Sample solutions were prepared by diluting the appropriate volume of oligonucleotide stock solutions to reach 10 μM of DNA/RNA and 20 μM of ligand, in 100 mM ammonium acetate. The solutions were incubated for 16 h at 4 °C before analysis by mass spectrometry. […] These parameters ensured a good signal intensity without disrupting noncovalent complexes, which was verified using d[G4T4G4]2 as a control. The presented spectra of all DNA/RNA used in this work (Fig. 5, S9 and S10) result from 8 min accumulations. The abundance of each species, M, M + 1L, M + 2L and M + 3L complexes, where M is a monomer oligonucleotide and L is a ligand, was determined from their peak area signals (A), from the sum of the −4, −5 and −6 charge states for DNA and from the sum of the −5, −6 and −7 charge states for RNA, assuming that their response factors are equal. The molar concentrations were then calculated knowing the total amount of oligonucleotide [M]tot: [drawing 1] [drawing 2] [drawing 3] [drawing 4] The concentration of the free ligand, [L]free, was determined from its total concentration [L]tot:[L]free = [L]tot − [M + 1L] − 2[M + 2L] − 3[M + 3L]Apparent consecutive dissociation constants (Kd1, Kd2 and Kd3) were calculated by using the following equations: [drawing 5] [drawing 6] [drawing 7]
(§2) We further analysed the formation of the DBA/G4 complexes by native electrospray ionization mass spectrometry (ESI-MS). We initially attempted to analyze DBA binding to the primary G4 targets from HIV-1 (HIVpro1, HIVpro2, LTR4 and rLTR4 RNA). […] These sequences span the major G4 topological classes and provide a representative assessment of DBA binding across diverse G4 architectures. We also included two DNA duplex controls (DK100 and DK66) to evaluate binding selectivity. This ESI-MS approach enables direct determination of binding stoichiometry, quantification of each species in solution, and calculation of dissociation constants (Kd) from the relative abundances of free and bound forms.[88,97]
(§3) In the ESI-MS conditions, the rLTR4 G4 (10 μM) forms a dimeric structure. […] Among the six DNA and RNA tested here (Fig. 5B, S9 and S10) only rLTR4 presented 1 : 3 G4/DBA complexes. In all cases but one, the 1 : 1 stoichiometry represents the major species in solution while for rLTR4 it is the 1 : 2 (green). […] For TG4T tetramolecular G4 or G4T4G4 bimolecular G4 only 1 : 1 and 1 : 2 complexes were detected (Fig. S9A and S10A). […] The weakest binding was obtained for the G4T4G4 antiparallel G4 and Htel sequence with Kd1s ranging from 11 μM for to 500 μM (Table 2).

For a further series, the system named is HIV-1. The settings on record: at 1.56 μM.
Series [2] relates to Htel (DNA, G4) AGGGTTAGGGTTAGGGTTAGGG
Description: native ESI-MS. The settings on record: 100 mM ammonium acetate (NH4+), no K+; apparent, site 1 of 2; 10 μM DNA, 20 μM ligand, 4 °C incubation.

A further series concerns the target DK100 DNA duplex. The experiment in a line: Native ESI-MS, DK100. Conditions: 10 μM DNA, 20 μM ligand, 100 mM ammonium acetate. It counts as binding. How it is done: as §1, §2, §3
Another series relates to TG4T (DNA, G4) TGGGGT. The experiment in a line: native ESI-MS. The settings on record: 100 mM ammonium acetate (NH4+), no K+; apparent, site 1 of 2; 10 μM DNA, 20 μM ligand, 4 °C incubation.
For a further series, the target named is DK66 DNA duplex. Description: Native ESI-MS, DK66. It counts as binding. Conditions: 10 μM DNA, 20 μM ligand, 100 mM ammonium acetate. How it is done: as §1, §2, §3
In series [3] the target is Htel DNA G4 (human telomeric). The experiment in a line: Native ESI-MS, Htel. It counts as binding. Conditions: 10 μM DNA, 20 μM ligand, 100 mM ammonium acetate. How it is done:
as §1, §2, §3

The target of the next series is rLTR4 RNA G4. Description: Native ESI-MS, rLTR4. It counts as binding, HIV-1. Conditions: 10 μM RNA, 20 μM ligand, 100 mM ammonium acetate. The method, then:
as §1, §2, §3

Series [4] is described as follows: Cell viability assay (CellTiter 96 AQueous One). It counts as cell-based. The settings on record: human, at 1.56 μM.
For series [5], the system named is LTR4-FT (parallel DNA G4). Description: FRET melting assay, LTR4-FT. It counts as binding, HIV-1. The settings on record: ligand 1 μM, DNA 0.2 μM. How it is done: Doubly labelled oligonucleotides with fluorescein and TAMRA were purchased lyophilized and RP-cartridge purified from Eurogentec (Kanaka Eurogentec, Seraing, Belgium). FRET melting experiments were run on Stratagene Mx3005P real-time PCR equipment in 96-well plates on the DNA sequences listed Table 1. Experiments were performed in 10 mM lithium cacodylate buffer (pH 7.2) and 10 mM KCl and 90 mM LiCl as previously described.[45,46] The DNA concentration was 0.2 μM. The stabilization (ΔT1/2) induced by compounds was calculated as the difference between the Tm of the nucleic acid alone and that measured with a ligand concentration of 1 μM. Data are presented as averages of three independent measurements, each conducted in duplicate (λexc = 492 nm, λem = 516 nm, T interval = 25–95 °C, ramp: 25 °C for 5 min, then 1 °C min^−1, measurements every 1 °C, 8× magnification of the fluorescence signal). The G4 selectivity of the ligands with respect to the duplex was evaluated by determining the Tm values in the presence of 0, 3 or 10 μM of the duplex competitor ds26.
In this assay, we performed thermal denaturation experiments by heating and recording the fluorescence of DNA oligonucleotides doubly labelled with fluorescein and TAMRA fluorophores (Fig. 3 and S7). Ligand binding to the G4 stabilises the structure, resulting in an increase in the half-dissociation temperature of the structure (ΔT1/2). As a first approximation, the higher the ΔT1/2 (ΔT1/2 higher), the higher the affinity of the ligand for the target.[45]
The fluorescently labeled oligonucleotides were dissolved at a concentration of 0.2 μM in 10 mM lithium cacodylate buffer (pH 7.2) with 10 mM KCl and 90 mM LiCl. […] E) Radar plot representation that summarizes the FRET-melting results (ΔT1/2 (°C)) for each ligand in the presence of HIVpro1-FT (green), HIVpro2-FT (grey), LTR4-FT (bleu), and Htel-FT (red). Data are the results of at least three independent experiments in which each data point was performed in duplicate.

By viability is commonly meant the share of living cells, or the viability signal relative to a control. Higher therefore signals better survival. For the molecule `COc1ccc2c(ccc3c2cc2c4ccc(OC)cc4ccc2[n+]3-c2ccc([N+](=O)[O-])cc2)c1` [DBA4], the pKd in [1] (read-out: Kd1 G4T4G4) is 4.34; in [1] (read-out: Kd2 G4T4G4) it was 4.57; on DK100 DNA duplex (read-out: Kd2 DK100), 3.85; at DK66 DNA duplex (read-out: Kd1 DK66) it was 3.78; on DK66 DNA duplex (read-out: Kd2 DK66), 3.51; in [3] (read-out: Kd1 Htel), 4.95. The pKd in series [3] (read-out: Kd2 Htel) was 4.26; at rLTR4 RNA G4 (read-out: Kd1 rLTR4) it was 4.98; on rLTR4 RNA G4 (read-out: Kd2 rLTR4), 6.30; at rLTR4 RNA G4 (read-out: Kd3 rLTR4), 4.67. For the same molecule, in the series with HIV-1, the “reduction of viral infectivity” value was “approximately 20%”. Moreover, the Kd1 in [2] is 11.21 µM; in the series with TG4T (DNA, G4) TGGGGT, 5.42 µM. Further, the viability at 24 h, 1.56 µM in [4] amounted to 100%. The “ΔT1/2 LTR4” value in series [5] (+10µM ds26) is 10±0.7 °C; in series [5] (No ds26), 11±0.5 °C and 11 °C.

Consider `COC(=O)c1ccc(-[n+]2c3ccc4cc(OC)ccc4c3cc3c4ccc(OC)cc4ccc32)cc1` [DBA2], for which the pKd in [1] (read-out: Kd1 G4T4G4) was 4.29; in [1] (read-out: Kd2 G4T4G4), 4.47; on DK100 DNA duplex (read-out: Kd1 DK100) it was 3.08; at DK66 DNA duplex (read-out: Kd1 DK66), 3.15; in series [3] (read-out: Kd1 Htel) it was 4.39; in [3] (read-out: Kd2 Htel) it was 4.45. Moreover, the pKd at rLTR4 RNA G4 (read-out: Kd1 rLTR4) was 4.96; on rLTR4 RNA G4 (read-out: Kd2 rLTR4), 6.16. The Kd1 in the series with TG4T (DNA, G4) TGGGGT came to 6.09 µM. The “ΔT1/2 LTR4” value in series [5] (+10µM ds26) was 7.3±0.4 °C; in [5] (No ds26) it was 9.4±0.3 °C.

As for `COc1ccc(-[n+]2c3ccc4cc(OC)ccc4c3cc3c4ccc(OC)cc4ccc32)cc1` [DBA3], the pKd in series [1] (read-out: Kd1 G4T4G4) is 4.43; in series [1] (read-out: Kd2 G4T4G4), 4.43; on DK100 DNA duplex (read-out: Kd1 DK100), 3.81; at DK100 DNA duplex (read-out: Kd2 DK100) it was 3.21; at DK66 DNA duplex (read-out: Kd1 DK66), 2.97; in series [3] (read-out: Kd1 Htel) it was 4.28. In addition, the pKd is 4.56 in series [3] (read-out: Kd2 Htel), 4.91 on rLTR4 RNA G4 (read-out: Kd1 rLTR4), 6.85 on rLTR4 RNA G4 (read-out: Kd2 rLTR4) and 4.51 on rLTR4 RNA G4 (read-out: Kd3 rLTR4). In addition, the Kd1 in the series on TG4T (DNA, G4) TGGGGT worked out at 13.62 µM. Further, the “ΔT1/2 LTR4” value in series [5] (+10µM ds26) was 10.2±0.3 °C; in series [5] (No ds26), 10.6±0.7 °C.

As to `c1ccc(-[n+]2c3ccc4ccccc4c3cc3c4ccccc4ccc32)cc1` [DBA5], the pKd in [1] (read-out: Kd1 G4T4G4) was 3.89; in series [1] (read-out: Kd2 G4T4G4), 4.48; on DK100 DNA duplex (read-out: Kd1 DK100) it was 4.40; on DK100 DNA duplex (read-out: Kd2 DK100) it was 4.17; at DK66 DNA duplex (read-out: Kd1 DK66), 4.12; on DK66 DNA duplex (read-out: Kd2 DK66), 3.93. Besides, the pKd in series [3] (read-out: Kd1 Htel) is 4.84; in [3] (read-out: Kd2 Htel), 4.61; at rLTR4 RNA G4 (read-out: Kd1 rLTR4), 5.30; on rLTR4 RNA G4 (read-out: Kd2 rLTR4) it was 5.00; at rLTR4 RNA G4 (read-out: Kd3 rLTR4), 5.83. The “reduction of viral infectivity” value with HIV-1 is ~40%. The Kd1 came out at 14.47 µM in series [2] and 21.57 µM in the series on TG4T (DNA, G4) TGGGGT. Also, the viability at 24 h, 1.56 µM in series [4] came out at 100%. For the same molecule, the “ΔT1/2 LTR4” value in series [5] (+10µM ds26) is 6.0±1.3 °C.

In the case of `COc1ccc2c(ccc3c2cc2c4ccc(OC)cc4ccc2[n+]3-c2ccccc2)c1` [DBA1], the pKd is 4.33 in series [1] (read-out: Kd1 G4T4G4); 4.41 in series [1] (read-out: Kd2 G4T4G4); 2.99 at DK100 DNA duplex (read-out: Kd1 DK100); 2.32 at DK66 DNA duplex (read-out: Kd1 DK66); 3.30 in series [3] (read-out: Kd1 Htel); 3.99 in [3] (read-out: Kd2 Htel). The values for the pKd on rLTR4 RNA G4 (read-out: Kd1 rLTR4), at rLTR4 RNA G4 (read-out: Kd2 rLTR4) and on rLTR4 RNA G4 (read-out: Kd3 rLTR4) were 4.69, 6.26 and 4.64, respectively. In the series with TG4T (DNA, G4) TGGGGT, the Kd1 is 14.69 µM. Besides, the figures for the “ΔT1/2 LTR4” value in [5] (+10µM ds26) and in [5] (No ds26) were 10±0.5 °C and 11±0.2 °C, respectively.
